Data: ChEMBL document CHEMBL1123754, “N6-phenyladenosines: pronounced effect of phenyl substituents on affinity for A2 adenosine receptors” (J Med Chem, 1987)

Assays:
[1] = Relative affinities for adenosine A2 and A1 receptors
Adenosine A2 receptor = Adenosine A2 receptor (Rattus norvegicus, UniProt P29276+P30543)
Description: Displacement of [3H]-NECA from adenosine A2 receptor of rat striatal membrane

Adenosine receptor A1 [2] = target: T1, Adenosine receptor A1 (Gallus gallus, UniProt P49892); experiment: Displacement of [125I]ABA from adenosine A1 receptor of chick cerebellar membrane
T1 sequence (P49892 whole entry): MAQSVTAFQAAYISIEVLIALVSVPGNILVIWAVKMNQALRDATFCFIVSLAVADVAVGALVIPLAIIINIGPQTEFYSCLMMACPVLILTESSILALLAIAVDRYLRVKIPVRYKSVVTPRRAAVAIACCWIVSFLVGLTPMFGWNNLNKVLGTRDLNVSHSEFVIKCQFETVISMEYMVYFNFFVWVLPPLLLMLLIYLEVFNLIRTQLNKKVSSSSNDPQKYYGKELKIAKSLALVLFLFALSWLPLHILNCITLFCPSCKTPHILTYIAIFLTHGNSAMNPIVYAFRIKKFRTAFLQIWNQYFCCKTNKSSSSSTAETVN

Adenosine receptor A1 [3] = target: T1, Adenosine receptor A1; experiment: Binding affinity for Adenosine A1 receptor using [125I]-ABA in chick cerebellar membrane; type: cell membranes, Cerebellum

SMILES	Selectivity [1]	IC50 (Adenosine A2 receptor) [nM]	IC50 (Adenosine receptor A1 [2]) [nM]	IC50 (Adenosine receptor A1 [3]) [nM]
Nc1cccc(Nc2ncnc3c2ncn3C2O[C@H](CO)[C@@H](O)[C@H]2O)c1 (stereo partly drawn)	225	10100	45.1	
OC[C@H]1OC(n2cnc3c(Nc4cccc(O)c4)ncnc32)[C@H](O)[C@@H]1O (stereo partly drawn)	690	7640		11.1
CCc1cccc(Nc2ncnc3c2ncn3C2O[C@H](CO)[C@@H](O)[C@H]2O)c1 (stereo partly drawn)	403	10200	25.3	
CCNC(=O)[C@H]1O[C@@H](n2cnc3c(N)ncnc32)[C@H](O)[C@@H]1O [NECA]			17	
OC[C@H]1OC(n2cnc3c(Nc4cccc(I)c4)ncnc32)[C@H](O)[C@@H]1O (stereo partly drawn)	620	11900	19	
OC[C@H]1OC(n2cnc3c(Nc4cccc(B(O)O)c4)ncnc32)[C@H](O)[C@@H]1O (stereo partly drawn)	220	9300	42.1	

Continued by falling IC50 (Adenosine receptor A1 [2]), values first:

Selectivity [1]	IC50 (Adenosine A2 receptor) [nM]	IC50 (Adenosine receptor A1 [2]) [nM]	IC50 (Adenosine receptor A1 [3]) [nM]	SMILES
65	860	13.1		OC[C@H]1OC(n2cnc3c(Nc4ccc(F)cc4)ncnc32)[C@H](O)[C@@H]1O (stereo partly drawn)
75	960	12.8		CCc1ccc(Nc2ncnc3c2ncn3C2O[C@H](CO)[C@@H](O)[C@H]2O)cc1 (stereo partly drawn)
155	1600	10.3		OC[C@H]1OC(n2cnc3c(Nc4cccc(F)c4)ncnc32)[C@H](O)[C@@H]1O (stereo partly drawn)
110	920	8.5		Cc1ccc(Nc2ncnc3c2ncn3C2O[C@H](CO)[C@@H](O)[C@H]2O)cc1 (stereo partly drawn)
150	1280	8.5		OC[C@H]1OC(n2cnc3c(Nc4ccc(I)cc4)ncnc32)[C@H](O)[C@@H]1O (stereo partly drawn)
275	1760	6.4		COc1ccc(Nc2ncnc3c2ncn3[C@@H]2O[C@H](CO)[C@@H](O)[C@H]2O)cc1
140	660	4.6		OC[C@H]1O[C@@H](n2cnc3c(Nc4ccccc4)ncnc32)[C@H](O)[C@@H]1O [N6-PHENYLADENOSINE]
		2.5		OC[C@H]1O[C@@H](n2cnc3c(NC4CCCCC4)ncnc32)[C@H](O)[C@@H]1O
